# Like-named read-outs stand apart in the source and are kept apart here.
# Experiments:
# PI3K = PI3K (Homo sapiens, UniProt P42336); assay: Fluorescence polarization assay for PI3K; type: biochemical;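 further: PI3K kinase reaction on PIP2 with ATP, 30-60 min, product sensed by GST-GRP with red probe in fluorescence polarization (mP), controls without enzyme and at zero time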
# prostate line LNCap = assay: In vitro cell culture growth assay (MTS), LNCap; type: cell-based, human; conditions: LNCap cells, three days after drug treatment;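 further: viable cell density read by absorbance at 490 nm, growth expressed as percent of vehicle-treated cells on the same plate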
# breast line MDA468 = assay: In vitro cell culture growth assay (MTS), MDA468; type: cell-based, human; conditions: MDA468 cells, three days after drug treatment
# Procedure, shortened: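 Three-day drug treatment starting 1 day post-plating; viable cells quantified via MTS metabolism (A490); effect normalised to in-plate vehicle controls as % growth.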
# PI3K, sequence (P42336 whole entry): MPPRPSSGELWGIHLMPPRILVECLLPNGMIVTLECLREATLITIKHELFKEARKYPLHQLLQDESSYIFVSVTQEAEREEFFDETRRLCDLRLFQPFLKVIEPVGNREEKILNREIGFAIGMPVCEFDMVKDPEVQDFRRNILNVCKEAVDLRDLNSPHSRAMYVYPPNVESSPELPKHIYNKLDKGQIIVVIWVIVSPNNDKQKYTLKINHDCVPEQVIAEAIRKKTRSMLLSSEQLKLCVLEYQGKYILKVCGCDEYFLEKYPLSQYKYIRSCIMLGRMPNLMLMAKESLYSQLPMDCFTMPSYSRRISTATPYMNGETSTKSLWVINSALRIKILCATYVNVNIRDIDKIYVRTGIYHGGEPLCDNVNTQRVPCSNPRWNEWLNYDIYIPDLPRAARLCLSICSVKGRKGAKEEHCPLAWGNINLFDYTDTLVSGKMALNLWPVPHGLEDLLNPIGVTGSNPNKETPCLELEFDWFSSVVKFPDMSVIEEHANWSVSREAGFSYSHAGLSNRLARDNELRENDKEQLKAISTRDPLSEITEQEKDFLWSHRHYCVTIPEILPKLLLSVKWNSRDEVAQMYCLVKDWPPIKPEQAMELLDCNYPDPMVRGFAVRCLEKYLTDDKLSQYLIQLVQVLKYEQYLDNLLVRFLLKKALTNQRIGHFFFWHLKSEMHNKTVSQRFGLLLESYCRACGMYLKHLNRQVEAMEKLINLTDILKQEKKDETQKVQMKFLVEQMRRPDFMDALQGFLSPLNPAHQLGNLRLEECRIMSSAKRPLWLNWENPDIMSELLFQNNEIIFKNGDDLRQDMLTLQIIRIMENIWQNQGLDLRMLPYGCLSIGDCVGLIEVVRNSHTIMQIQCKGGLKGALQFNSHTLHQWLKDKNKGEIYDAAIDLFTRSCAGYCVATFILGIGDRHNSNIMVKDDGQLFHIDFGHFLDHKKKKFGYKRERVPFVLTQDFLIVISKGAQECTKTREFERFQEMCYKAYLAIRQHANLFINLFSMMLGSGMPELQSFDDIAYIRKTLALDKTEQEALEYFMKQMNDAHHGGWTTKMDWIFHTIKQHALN
# PI3K, sequence (P27986 whole entry partner): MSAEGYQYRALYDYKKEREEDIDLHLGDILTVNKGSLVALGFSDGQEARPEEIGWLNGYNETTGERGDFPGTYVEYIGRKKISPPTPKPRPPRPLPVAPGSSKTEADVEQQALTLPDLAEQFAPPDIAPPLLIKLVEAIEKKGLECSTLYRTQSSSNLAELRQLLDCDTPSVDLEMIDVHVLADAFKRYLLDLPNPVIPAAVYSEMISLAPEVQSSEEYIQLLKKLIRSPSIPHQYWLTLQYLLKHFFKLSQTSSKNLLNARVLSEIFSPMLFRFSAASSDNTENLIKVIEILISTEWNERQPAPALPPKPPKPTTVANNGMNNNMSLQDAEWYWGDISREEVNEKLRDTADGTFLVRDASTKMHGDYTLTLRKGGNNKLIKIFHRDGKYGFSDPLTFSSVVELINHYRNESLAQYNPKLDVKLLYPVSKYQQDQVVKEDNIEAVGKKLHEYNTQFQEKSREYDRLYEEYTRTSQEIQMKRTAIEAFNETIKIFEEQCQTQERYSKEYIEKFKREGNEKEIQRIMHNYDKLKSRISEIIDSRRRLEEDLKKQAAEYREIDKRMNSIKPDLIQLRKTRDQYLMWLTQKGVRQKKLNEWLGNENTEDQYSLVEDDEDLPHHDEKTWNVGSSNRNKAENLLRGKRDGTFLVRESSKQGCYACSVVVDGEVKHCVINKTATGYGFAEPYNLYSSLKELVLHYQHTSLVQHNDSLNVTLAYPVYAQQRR
SMILES,"IC50 (PI3K; PI3Kα, read-out: PI3Kα IC50)","IC50 (prostate line LNCap; Homo sapiens, LNCaP, 72 h)","IC50 (breast line MDA468; Homo sapiens, 72 h)","IC50 (PI3K; PI3Kα IC50, PI3Kα)","IC50 (prostate line LNCap; Homo sapiens, 72 h)",IC50 (prostate line LNCap),IC50 (breast line MDA468)
"CNC(=O)Nc1ccc(-c2nc(N3CCOCC3)c3cnn(C4CCN(C(=O)C(C)C)CC4)c3n2)cc1 [Example 475, 1-{4-[1-(1-isobutyrylpiperidin-4-yl)-4-morpholin-4-yl-1H-pyrazolo[3,4-d]pyrimidin-6-yl]phenyl}-3-methylurea]",148 nM,150 nM,300 nM,–,–,–,–
"Oc1cccc(-c2nc(N3CCOCC3)c3cnn(C4CCCCC4)c3n2)c1 [Example 91, 3-(1-cyclohexyl-4-morpholin-4-yl-1H-pyrazolo[3,4-d]pyrimidin-6-yl)phenol]",35 nM,410 nM,2500 nM,–,–,–,–
"CNC(=O)Nc1ccc(-c2nc(N3CCOCC3)c3cnn(C4CCN(Cc5ccccc5O)CC4)c3n2)cc1 [Example 399, 1-(4-{1-[1-(2-hydroxybenzyl)piperidin-4-yl]-4-morpholin-4-yl-1H-pyrazolo[3,4-d]pyrimidin-6-yl}phenyl)-3-methylurea]",37 nM,60 nM,300 nM,–,–,–,–
c1ccc(-n2ncc3c(N4CCOCC4)nc(-c4ccc(N5CCOCC5)nc4)nc32)cc1 [Compound 131],1100 nM,60000 nM,60000 nM,–,–,–,–
"COC(=O)Nc1ccc(-c2nc(N3CCOCC3)c3cnn(C4CCN(C(=O)c5ccc(F)cc5F)CC4)c3n2)cc1 [Example 449, methyl (4-{1-[1-(2,4-difluorobenzoyl)piperidin-4-yl]-4-morpholin-4-yl-1H-pyrazolo[3,4-d]pyrimidin-6-yl}phenyl)carbamate]",800 nM,500 nM,1200 nM,–,–,–,–
c1ccc(-n2ncc3c(N4CCOCC4)nc(-c4ccc(CN5CCOCC5)cc4)nc32)cc1 [Compound 130],822 nM,60000 nM,60000 nM,–,–,–,–
CC(C)OC(=O)Nc1ccc(-c2nc(N3CCOCC3)c3cnn(C4CCN(Cc5ccccc5)CC4)c3n2)cc1 [Compound 208],3790 nM,5800 nM,11000 nM,–,–,–,–
"CCNC(=O)Nc1ccc(-c2nc(N3CCOCC3)c3cnn(C4CCN(Cc5ccccc5)CC4)c3n2)cc1F [Compound 596, 1-{4-[1-(1-benzylpiperidin-4-yl)-4-morpholin-4-yl-1H-pyrazolo[3,4-d]pyrimidin-6-yl]-2-fluorophenyl}-3-ethylurea]",485 nM,230 nM,2500 nM,–,–,–,–
"O=C(NCCc1ccccc1)Nc1ccc(-c2nc(N3CCOCC3)c3cnn(C4CCN(Cc5ccccc5)CC4)c3n2)cc1 [Compound 259, 1-{4-[1-(1-benzylpiperidin-4-yl)-4-morpholin-4-yl-1H-pyrazolo[3,4-d]pyrimidin-6-yl]phenyl}-3-(2-phenylethyl)urea]",2140 nM,1000 nM,20000 nM,–,–,–,–
"CCOC(=O)N1CCC(n2ncc3c(N4CCOCC4)nc(-c4ccc(NC(=O)NCCF)cc4)nc32)CC1 [Compound 819, ethyl 4-[6-(4-{[(2-fluoroethyl)carbamoyl]amino}phenyl)-4-morpholin-4-yl-1H-pyrazolo[3,4-d]pyrimidin-1-yl]piperidine-1-carboxylate]",794 nM,< 27 nM,70 nM,–,–,–,–
"O=C(NCCO)Nc1ccc(-c2nc(N3CCOCC3)c3cnn(C4CCN(CCCCO)CC4)c3n2)cc1 [Compound 746, 1-(4-{1-[1-(4-hydroxybutyl)piperidin-4-yl]-4-morpholin-4-yl-1H-pyrazolo[3,4-d]pyrimidin-6-yl}phenyl)-3-(2-hydroxyethyl)urea]",370 nM,29000 nM,30000 nM,–,–,–,–
"CCCNC(=O)Nc1ccc(-c2nc(N3CCOCC3)c3cnn(C4CCN(C(=O)OCCC)CC4)c3n2)cc1 [Compound 853, propyl 4-(4-morpholin-4-yl-6-{4-[(propylcarbamoyl)amino]phenyl}-1H-pyrazolo[3,4-d]pyrimidin-1-yl)piperidine-1-carboxylate]",824 nM,130 nM,1000 nM,–,–,–,–
"O=C(Oc1ccccc1)N1CCC(n2ncc3c(N4CCOCC4)nc(-c4ccc5[nH]ccc5c4)nc32)CC1 [Compound 243, phenyl 4-[6-(1H-indol-5-yl)-4-morpholin-4-yl-1H-pyrazolo[3,4-d]pyrimidin-1-yl]piperidine-1-carboxylate]",–,–,4300 nM,535 nM,1300 nM,–,–
"CNC(=O)Oc1ccc(-c2nc(N3CCOCC3)c3cnn(C4CCN(C(=O)OC)CC4)c3n2)cc1 [Compound 946, methyl 4-(6-{4-[(methylcarbamoyl)oxy]phenyl}-4-morpholin-4-yl-1H-pyrazolo[3,4-d]pyrimidin-1-yl)piperidine-1-carboxylate]",–,–,7000 nM,13000 nM,1600 nM,–,–
"COC(=O)Nc1ccc(-c2nc(N3CCOCC3)c3cnn(C4CCN(C(=O)c5ccccc5)CC4)c3n2)cc1 [Example 442, methyl {4-[1-(1-benzoylpiperidin-4-yl)-4-morpholin-4-yl-1H-pyrazolo[3,4-d]pyrimidin-6-yl]phenyl}carbamate]",1010 nM,150 nM,500 nM,–,–,–,–
O=C(C1CC1)N1CCC(n2ncc3c(N4CCOCC4)nc(-c4cccc(O)c4)nc32)CC1 [Example 21],98 nM,500 nM,1400 nM,–,–,–,–
"CNC(=O)Nc1ccc(-c2nc(N3CCOCC3)c3cnn(C4CCN(C(=O)c5cccc(OC)c5)CC4)c3n2)cc1 [Example 364, 1-(4-{1-[1-(3-methoxybenzoyl)piperidin-4-yl]-4-morpholin-4-yl-1H-pyrazolo[3,4-d]pyrimidin-6-yl}phenyl)-3-methylurea]",75 nM,35 nM,300 nM,–,–,–,–
"OC1CCC(n2ncc3c(N4CCOCC4)nc(-c4ccc5[nH]ccc5c4)nc32)CC1 (stereo not drawn) [Compound 152, 4-[6-(1H-indol-5-yl)-4-morpholin-4-yl-1H-pyrazolo[3,4-d]pyrimidin-1-yl]cyclohexanol]",1130 nM,600 nM,2300 nM,–,–,–,–
"CN/C(=N\c1ccc(-c2nc(N3CCOCC3)c3cnn(C4CCN(C(=O)OC(C)C)CC4)c3n2)cc1)SC [Compound 832, isopropyl 4-[6-(4-{[(1E)-(methylamino)(methylthio)methylene]amino}phenyl)-4-morpholin-4-yl-1H-pyrazolo[3,4-d]pyrimidin-1-yl]piperidine-1-carboxylate]",8000 nM,2000 nM,3700 nM,–,–,–,–
"O=C(Nc1ccc(-c2nc(N3CCOCC3)c3cnn(C4CCN(Cc5cccnc5)CC4)c3n2)cc1)NC1CC1 [Compound 649, 1-cyclopropyl-3-(4-{4-morpholin-4-yl-1-[1-(pyridin-3-ylmethyl)piperidin-4-yl]-1H-pyrazolo[3,4-d]pyrimidin-6-yl}phenyl)urea]",438 nM,–,–,–,–,< 27 nM,85 nM
"CC(C)OC(=O)N1CCC(n2ncc3c(N4CCOCC4)nc(-c4ccc(NC(=O)Nc5cccnc5)cc4)nc32)CC1 [Compound 838, isopropyl 4-(4-morpholin-4-yl-6-{4-[(pyridin-3-ylcarbamoyl)amino]phenyl}-1H-pyrazolo[3,4-d]pyrimidin-1-yl)piperidine-1-carboxylate]",74 nM,28 nM,150 nM,–,–,–,–
CN1CCC(n2ncc3c(N4CCOCC4)nc(-c4ccc5[nH]ccc5c4)nc32)CC1 [Compound 124],843 nM,830 nM,1700 nM,–,–,–,–
